{
  "source": "patent US6346514B1",
  "about": "“Pharmaceutical lysine-containing polypeptide compositions and methods of use thereof” (priority 1991, dated 2002)",
  "system": "Vibrio anguillarum (V-775)",
  "experiment": "Vaccine augmentation in Rainbow trout challenged with Vibrio anguillarum",
  "type": "in vivo, Rainbow trout (Oncorhynchus mykiss)",
  "description": "In the present investigation, fish were obtained and inoculated at approximately 12 weeks of age. Immunologic studies were conducted under a variety of conditions in which fish were provided with vaccination to observe vaccine augmentation, and under conditions in which no vaccine was provided prior to inoculum. The effects of exposure time, HM897 concentration, and vaccine on mortalities relative to control studies in which no HM897 was administered provided data for analysis of the immunologic effect of HM897.\nThe study was conducted using Rainbow trout (Oncorhynchus mykiss) to compare the effects of a standard fish vaccine to the protection provided by varying dosages of HM897. The fish were challenged with Vibrio anguillarum (V-775), a bacteria that causes fatal vibriosis, typically 3-5 days following pathogen exposure.\nRainbow Trout (Oncorhynchus mykiss) weighing approximately 5 grams were used as test organisms. The fish were obtained from Cran-Mar Trout Farm. Upon arrival at BRL's facility, the fish were quarantined for a minimum of seven days, and observed to be disease free. During this period, the fish were held at a stable temperature. There was consistent water quality in an aerated flow-through system with a flow rate of approximately 30 liters per hour. During the holding period the fish were observed daily for signs of disease, stress, injury, hemorrhaging, and external parasite. The fish were not fed 48 hours prior to testing.\nThe Rainbow trout used in this study weighed an average of 5 grams. The fish were divided into 21 groups with 50 fish per group. Each group of 50 fish was maintained in two 10-gallon tanks (25 fish/tank).\nThe level of bacterial dilution to achieve a LD75 (the level designed to kill 75% of the non-vaccinated fish) was a dilution of 10^−4. to 10^−5. The challenge bacteria were grown for 48 hours at 25° C in trypticase soy broth. The 10^−4 dilution was made from this broth in 0.9% saline. All fish excepting the control group that received no bacterial challenge were inoculated 7 days after exposure to HM897.\nRainbow trout hatchling were exposed to the concentration of HM897 as described below. Some of the fish had been vaccinated while others had received no vaccination. In each tank, fifty vaccinated or unvaccinated fish were exposed for a period of 5 minutes to HM897, and then removed and placed in an assigned tank according to the group number.\nThe positive control group (III) received a vaccine made from Vibrio anguillarum (V-775). This was made through a fermentation and extraction process in the BRL laboratory facility and is equivalent to the aquaculture industry standard vibrio vaccine.\nAll groups scheduled to be challenged with the Vibrio anguillarum bacterium were challenged at the LD75 dilution on day seven of the experiment by i.p. injection of 0.1 mL of 10^−4 bacterial dilution. The fish were observed daily for mortalities.",
  "data": [
    {"substance": "Thr-Ala-Glu-Glu-Lys (TAEEK) [HM897]", "values": [
      {"measurement": "Cumulative Mortalities", "setting": "Day 17, Group IVd: vaccinated, HM897 100 μg/38 liters", "result": 17},
      {"measurement": "Cumulative Mortalities", "setting": "Day 17, Group Va: not vaccinated, HM897 10 μg/38 liters", "result": 33},
      {"measurement": "Cumulative Mortalities", "setting": "Day 17, Group Vb: not vaccinated, HM897 25 μg/38 liters", "result": 33},
      {"measurement": "Cumulative Mortalities", "setting": "Day 17, Group Vc: not vaccinated, HM897 75 μg/38 liters", "result": 34},
      {"measurement": "Cumulative Mortalities", "setting": "Day 18, Group IVa: vaccinated, HM897 2.5 μg/38 liters", "result": 13},
      {"measurement": "Cumulative Mortalities", "setting": "Day 18, Group IVb: vaccinated, HM897 10 μg/38 liters", "result": 7},
      {"measurement": "Cumulative Mortalities", "setting": "Day 18, Group IVc: vaccinated, HM897 50 μg/38 liters", "result": 10},
      {"measurement": "Cumulative Mortalities", "setting": "Day 18, Group IVd: vaccinated, HM897 100 μg/38 liters", "result": 17},
      {"measurement": "Cumulative Mortalities", "setting": "Day 18, Group Va: not vaccinated, HM897 10 μg/38 liters", "result": 33},
      {"measurement": "Cumulative Mortalities", "setting": "Day 18, Group Vb: not vaccinated, HM897 25 μg/38 liters", "result": 33},
      {"measurement": "Cumulative Mortalities", "setting": "Day 18, Group Vc: not vaccinated, HM897 75 μg/38 liters", "result": 34},
      {"measurement": "Cumulative Mortalities", "setting": "Day 18, Group Vd: not vaccinated, HM897 150 μg/38 liters", "result": 32},
      {"measurement": "Cumulative Mortalities", "setting": "Day 19, Group IVa: vaccinated, HM897 2.5 μg/38 liters", "result": 13},
      {"measurement": "Cumulative Mortalities", "setting": "Day 19, Group IVb: vaccinated, HM897 10 μg/38 liters", "result": 7},
      {"measurement": "Cumulative Mortalities", "setting": "Day 19, Group IVc: vaccinated, HM897 50 μg/38 liters", "result": 10},
      {"measurement": "Cumulative Mortalities", "setting": "Day 19, Group IVd: vaccinated, HM897 100 μg/38 liters", "result": 17},
      {"measurement": "Cumulative Mortalities", "setting": "Day 19, Group Va: not vaccinated, HM897 10 μg/38 liters", "result": 33},
      {"measurement": "Cumulative Mortalities", "setting": "Day 19, Group Vb: not vaccinated, HM897 25 μg/38 liters", "result": 33},
      {"measurement": "Cumulative Mortalities", "setting": "Day 19, Group Vc: not vaccinated, HM897 75 μg/38 liters", "result": 34},
      {"measurement": "Cumulative Mortalities", "setting": "Day 19, Group Vd: not vaccinated, HM897 150 μg/38 liters", "result": 32},
      {"measurement": "Cumulative Mortalities", "setting": "Day 20, Group IVa: vaccinated, HM897 2.5 μg/38 liters", "result": 13},
      {"measurement": "Cumulative Mortalities", "setting": "Day 20, Group IVb: vaccinated, HM897 10 μg/38 liters", "result": 7},
      {"measurement": "Cumulative Mortalities", "setting": "Day 20, Group IVc: vaccinated, HM897 50 μg/38 liters", "result": 10},
      {"measurement": "Cumulative Mortalities", "setting": "Day 20, Group IVd: vaccinated, HM897 100 μg/38 liters", "result": 17},
      {"measurement": "Cumulative Mortalities", "setting": "Day 20, Group Va: not vaccinated, HM897 10 μg/38 liters", "result": 33},
      {"measurement": "Cumulative Mortalities", "setting": "Day 20, Group Vb: not vaccinated, HM897 25 μg/38 liters", "result": 33},
      {"measurement": "Cumulative Mortalities", "setting": "Day 20, Group Vc: not vaccinated, HM897 75 μg/38 liters", "result": 34},
      {"measurement": "Cumulative Mortalities", "setting": "Day 20, Group Vd: not vaccinated, HM897 150 μg/38 liters", "result": 32},
      {"measurement": "Cumulative Mortalities", "setting": "Day 21, Group IVa: vaccinated, HM897 2.5 μg/38 liters", "result": 13},
      {"measurement": "Cumulative Mortalities", "setting": "Day 21, Group IVb: vaccinated, HM897 10 μg/38 liters", "result": 7},
      {"measurement": "Cumulative Mortalities", "setting": "Day 21, Group IVc: vaccinated, HM897 50 μg/38 liters", "result": 10},
      {"measurement": "Cumulative Mortalities", "setting": "Day 21, Group IVd: vaccinated, HM897 100 μg/38 liters", "result": 17},
      {"measurement": "Cumulative Mortalities", "setting": "Day 21, Group Va: not vaccinated, HM897 10 μg/38 liters", "result": 33},
      {"measurement": "Cumulative Mortalities", "setting": "Day 21, Group Vb: not vaccinated, HM897 25 μg/38 liters", "result": 33},
      {"measurement": "Cumulative Mortalities", "setting": "Day 21, Group Vc: not vaccinated, HM897 75 μg/38 liters", "result": 34},
      {"measurement": "Cumulative Mortalities", "setting": "Day 21, Group Vd: not vaccinated, HM897 150 μg/38 liters", "result": 32},
      {"measurement": "Percent Mortalities", "setting": "Group IVa: vaccinated, HM897 2.5 μg/38 liters", "result": 26, "unit": "%"},
      {"measurement": "Percent Mortalities", "setting": "Group IVb: vaccinated, HM897 10 μg/38 liters", "result": 14, "unit": "%"},
      {"measurement": "Percent Mortalities", "setting": "Group IVc: vaccinated, HM897 50 μg/38 liters", "result": 20, "unit": "%"},
      {"measurement": "Percent Mortalities", "setting": "Group IVd: vaccinated, HM897 100 μg/38 liters", "result": 34, "unit": "%"},
      {"measurement": "Percent Mortalities", "setting": "Group Va: not vaccinated, HM897 10 μg/38 liters", "result": 66, "unit": "%"},
      {"measurement": "Percent Mortalities", "setting": "Group Vb: not vaccinated, HM897 25 μg/38 liters", "result": 66, "unit": "%"},
      {"measurement": "Percent Mortalities", "setting": "Group Vc: not vaccinated, HM897 75 μg/38 liters", "result": 68, "unit": "%"},
      {"measurement": "Percent Mortalities", "setting": "Group Vd: not vaccinated, HM897 150 μg/38 liters", "result": 64, "unit": "%"},
      {"measurement": "Percent Mortalities", "setting": "Group Ve: not vaccinated, HM897 250 μg/38 liters", "result": 68, "unit": "%"},
      {"measurement": "protection against the bacterial infection", "setting": "HM897 exposure without vaccine (Groups Va to Ve)", "result": "no protection"},
      {"measurement": "Total Mortalities", "setting": "Table XI-3, Group IVa: vaccinated, HM897 2.5 μg/38 liters", "result": 13},
      {"measurement": "Total Mortalities", "setting": "Table XI-3, Group IVb: vaccinated, HM897 10 μg/38 liters", "result": 7},
      {"measurement": "Total Mortalities", "setting": "Table XI-3, Group IVc: vaccinated, HM897 50 μg/38 liters", "result": 10},
      {"measurement": "Total Mortalities", "setting": "Table XI-3, Group IVd: vaccinated, HM897 100 μg/38 liters", "result": 17},
      {"measurement": "Total Mortalities", "setting": "Table XI-3, Group Va: not vaccinated, HM897 10 μg/38 liters", "result": 33},
      {"measurement": "Total Mortalities", "setting": "Table XI-3, Group Vb: not vaccinated, HM897 25 μg/38 liters", "result": 33},
      {"measurement": "Total Mortalities", "setting": "Table XI-3, Group Vc: not vaccinated, HM897 75 μg/38 liters", "result": 34},
      {"measurement": "Total Mortalities", "setting": "Table XI-3, Group Vd: not vaccinated, HM897 150 μg/38 liters", "result": 32},
      {"measurement": "Total Mortalities", "setting": "Table XI-3, Group Ve: not vaccinated, HM897 250 μg/38 liters", "result": 34},
      {"measurement": "Total Mortalities", "setting": "Table XI-4, Group IVa: vaccinated, HM897 2.5 μg/38 liters", "result": 13},
      {"measurement": "Total Mortalities", "setting": "Table XI-4, Group IVb: vaccinated, HM897 10 μg/38 liters", "result": 7},
      {"measurement": "Total Mortalities", "setting": "Table XI-4, Group IVc: vaccinated, HM897 50 μg/38 liters", "result": 10},
      {"measurement": "Total Mortalities", "setting": "Table XI-4, Group IVd: vaccinated, HM897 100 μg/38 liters", "result": 17},
      {"measurement": "Total Mortalities", "setting": "Table XI-4, Group Va: not vaccinated, HM897 10 μg/38 liters", "result": 33},
      {"measurement": "Total Mortalities", "setting": "Table XI-4, Group Vb: not vaccinated, HM897 25 μg/38 liters", "result": 33},
      {"measurement": "Total Mortalities", "setting": "Table XI-4, Group Vc: not vaccinated, HM897 75 μg/38 liters", "result": 34},
      {"measurement": "Total Mortalities", "setting": "Table XI-4, Group Vd: not vaccinated, HM897 150 μg/38 liters", "result": 32},
      {"measurement": "Total Mortalities", "setting": "Table XI-4, Group Ve: not vaccinated, HM897 250 μg/38 liters", "result": 34},
      {"measurement": "augmentation of vaccinations", "setting": "vaccinated fish exposed to HM897", "result": "statistically significant effect"}
    ]}
  ]
}
